What was measured:
Type in all cases: in vivo
Phytophthora infestans = conditions: tomato seedlings sprayed to run-off, inoculated following day with spore suspension, saturated atmosphere 20° C. 24 hours then growth chamber 5 days; test concentration not stated
Puccinia recondita = experiment: Test B: wheat leaf rust, preventive spray on wheat seedlings; conditions: wheat seedlings sprayed to run-off, inoculated following day with spore suspension, saturated atmosphere 20° C. 24 hours then growth chamber 6 days; test concentration not stated
From the text: (§1) General protocol for preparing test suspensions: Test compounds are first dissolved in acetone in an amount equal to 3% of the final volume and then suspended at the desired concentration (in ppm) in acetone and purified water (50/50 mix) containing 250 ppm of the surfactant Trem® 014 (polyhydric alcohol esters). The resulting test suspensions are then used in the following tests. Spraying a 200 ppm test suspension to the point of run-off on the test plants is the equivalent of a rate of 500 g/ha
The test suspension was sprayed to the point of run-off on wheat seedlings. The following day the seedlings were inoculated with a spore suspension of Puccinia recondita (the causal agent of wheat leaf rust) and incubated in a saturated atmosphere at 20° C. for 24 hours, and then moved to a growth chamber at 20° C. for 6 days, after which disease ratings were made.
(§2) Results for Tests A-D are given in Table A. In the table, a rating of 100 indicates 100% disease control and a rating of 0 indicates no disease control (relative to the controls). A dash (-) indicates no test results. ND indicates disease control not determined due to phytotoxicity.

[1] = test system: Erysiphe graminis f sp. tritici; experiment: Test A: wheat powdery mildew, preventive spray on wheat seedlings; conditions: wheat seedlings sprayed to run-off, inoculated following day with spore dust, 20° C. for 7 days; test concentration not stated
From the text: as §1
The test suspension was sprayed to the point of run-off on wheat seedlings. The following day the seedlings were inoculated with a spore dust of Erysiphe graminis f sp. tritici, (the causal agent of wheat powdery mildew) and incubated in a growth chamber at 20° C. for 7 days, after which disease ratings were made.
as §2

Row | SMILES | Test C disease control rating (100 = 100% disease control, 0 = no disease control relative to the controls) (Phytophthora infestans) [%] | Test B disease control rating (100 = 100% disease control, 0 = no disease control relative to the controls) (Puccinia recondita) [%] | Test A disease control rating (100 = 100% disease control, 0 = no disease control relative to the controls) [1] [%]
1 | Cc1cnc2c(c1)CCCC2NC(=O)c1ccc(Cl)nc1 (stereo not drawn) [Compound B4] | 32 | 9 | 0
2 | CSc1ncccc1C(=O)NC1CCCc2cc(C)cnc21 (stereo not drawn) [Compound B3] | 56 | 23 | 0
3 | Cc1cnc2c(c1)CCCC2NC(=O)c1cccnc1O (stereo not drawn) [Compound B8] | 47 | 19 | 0
4 | Cc1cnc2c(c1)CCCC2NC(=O)c1c(F)cccc1Cl (stereo not drawn) [Compound A9] | 97 | 38 | 0
5 | Cc1cnc2c(c1)CCCC2NC(=O)c1ccnc(Cl)c1 (stereo not drawn) [Compound C1] | 84 | 55 | 0
6 | Cc1cnc2c(c1)CCCC2NC(=O)c1cccnc1Nc1cccc(C(F)(F)F)c1 (stereo not drawn) [Compound B1] | 16 | 19 | 0
7 | Cc1cnc2c(c1)CCCC2NC(=O)c1ccccc1C (stereo not drawn) [Compound A7] | 75 | 45 | 0
8 | Cc1cnc2c(c1)CCCC2NC(=O)c1c(Cl)cc(Cl)cc1Cl (stereo not drawn) [Compound A6] | 82 | 9 | 0
9 | COc1cc(C(=O)NC2CCCc3cc(C)cnc32)cc(Cl)n1 (stereo not drawn) [Compound C2, 2-chloro-6-methoxy-N-(5,6,7,8-tetrahydro-3-methyl-8-quinolinyl)4-pyridinecarboxamide] | 18 | 28 | 95
10 | Cc1cnc2c(c1)CCCC2NC(=O)c1c(F)cccc1F (stereo not drawn) [Compound A4] | 90 | 0 | 0
11 | Cc1cnc2c(c1)CCCC2NC(=O)c1c(Cl)cccc1Cl (stereo not drawn) [Compound A1, 2,6-dichloro-N-(5,6,7,8-tetrahydro-3-methyl-8-quinolinyl)benzamide] | 100 | 84 | 0
12 | Cc1cnc2c(c1)CCCC2NC(=O)c1ccccc1Cl (stereo not drawn) [Compound A5] | 46 | 55 | 0
13 | Cc1cnc2c(c1)CCCC2NC(=O)c1c(F)ccc(F)c1F (stereo not drawn) [Compound A8, 2,3,6-trifluoro-N-(5,6,7,8-tetrahydro-3-methyl-8-quinolinyl)benzamide] | 100 | 55 | 0
14 | Cc1cnc2c(c1)CCCC2NC(=O)c1ccc(Br)cc1 (stereo not drawn) [Compound A2] | 5 | 18 | 0
15 | Cc1cnc2c(c1)CCCC2NC(=O)c1ccccc1C(F)(F)F (stereo not drawn) [Compound A3] | 47 | 41 | 0

Reference: patent US20040127361A1 (priority 2003, published 2004)
